Data taken from article PMC11089204 (Frontiers in Pharmacology, 2024).
Several values for one entry are separate records, joined by “and”; a condition that tells them apart may be missing. Equal values may be shown once. Read-outs that look alike come from different tables or passages of the source.

Key:
[1] = target: T1, human 5-HT2A receptor (Homo sapiens, UniProt P28223); test: 5-HT activation potency (IP1 accumulation), 5-HT2A; type: cell-based; set-up: expressed in transfected cells; settings: NIH/3T3 cells, read-out: h5-HT2A Activation potency EC50 ± SD
T1 sequence (P28223 whole entry): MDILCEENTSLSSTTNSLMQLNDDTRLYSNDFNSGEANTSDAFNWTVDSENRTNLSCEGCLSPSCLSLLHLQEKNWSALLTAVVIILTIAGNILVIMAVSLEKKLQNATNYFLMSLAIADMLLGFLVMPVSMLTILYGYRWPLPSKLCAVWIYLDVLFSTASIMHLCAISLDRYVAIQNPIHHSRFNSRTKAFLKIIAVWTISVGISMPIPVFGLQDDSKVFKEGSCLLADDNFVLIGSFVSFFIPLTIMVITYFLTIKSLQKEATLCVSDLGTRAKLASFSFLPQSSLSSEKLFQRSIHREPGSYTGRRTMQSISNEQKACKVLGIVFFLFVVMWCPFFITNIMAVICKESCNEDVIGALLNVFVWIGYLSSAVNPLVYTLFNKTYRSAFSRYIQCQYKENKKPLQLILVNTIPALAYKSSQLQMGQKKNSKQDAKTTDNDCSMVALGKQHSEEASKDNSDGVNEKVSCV
Procedure: (§1) NIH/3T3 cells stably expressing the human 5-HT1A, 5-HT2A, and 5-HT2B receptors were seeded at a density of 3,000 cells (5-HT1A and 5-HT2A) or 4,000 cells (5-HT2B) in 384-well plates using Opti-MEM medium from Gibco (ThermoFisher, Life Technologies, Zug, Switzerland). Subsequently, the test compounds were introduced, and the plates were incubated for 90 min at 37°C, followed by a 60 min incubation with Anti-IP1-Cryptate and IP1-d2 at room temperature. The formation of stimulated IP1 was quantified by homogeneous time-resolved fluorescence (HTRF) measurements using a BioTek Synergy H1 microplate reader (Agilent Technologies, Basel, Switzerland). The obtained raw data for receptor activation were subjected to normalization, wherein the baseline signal was set at 0%, and the maximum signal stimulated by 5-HT at the specific receptor was established as 100%.

[2] = cited from earlier work; for fraction of administered psilocybin dose excreted in urine: oral psilocybin, within 24 h (time not stated for 4-HIAA)
[3] = system: human liver microsomes (HLM); test: Psilocin incubation with human liver microsomes (CYP inhibition assay); type: in vitro ADME; settings: for metabolite concentration formed from psilocin / psilocin concentration (mean ± SD): 1,000 nM psilocin with HLM; for metabolite concentration formed from psilocin: 240 min incubation; for psilocin concentration: absence of HLM
Procedure: Corning UltraPool human liver microsomes (HLM) 150 (20 mg/mL), human intestinal microsomes (HIM) pool (10 mg/mL) as well as recombinant human CYP enzymes (with P450 oxidoreductase, OR) including CYP1A2+OR (0.5 nmol), CYP2B6+OR (0.5 nmol), CYP2C8+OR (1.0 nmol), CYP2C9*1+OR (1 nmol), CYP2C19+OR (0.5 nmol), CYP2D6*1+OR (0.5 nmol), CYP2E1+OR + cytochrome b5 (1 nmol), CYP3A4+OR + cytochrome b5 (0.5 nmol), MAO-A (5 mg/mL), MAO-B (5 mg/mL), and UGT1A10 (5 mg/mL) were purchased from Corning Life Sciences B.V (Amsterdam, Netherlands). All microsomes and recombinant enzyme solutions were aliquoted and stored at −80 °C until further use.
The total volume of the reaction mixture was 500 μL. […] Samples were either directly analyzed by liquid chromatography tandem mass spectrometry (LC-MS/MS) or briefly stored at −20°C until analysis.

[4] = Pharmacokinetics and metabolites in mouse plasma after oral psilocybin; type: in vivo, C57BL/6J mice; settings: for half-life / Cmax / Tmax: male, C57BL/6J, po, n = 5; for half-life: mouse, plasma, 3 mg/kg, read-out: elimination half-life t1/2 (mean ± SD) (converted); for Cmax: read-out: Cmax (mean ± SD); for Tmax: read-out: tmax (mean ± SD)
Procedure: C57BL/6J adult male mice (Janvier, Le Genest-Saint-Isle, France) were maintained in littermate pairs in standard cages (containing sawdust, a sleeping chamber, tissue paper, and a wood stick) with water and pellet food available ad libitium. The colony room was on a reversed light-dark cycle (dark phase 07:00 to 19:00) with temperature at 22°C and humidity at 50–60%. A total of 10 mice were dosed orally with either 3 mg/kg bodyweight psilocybin (n = 5) or saline solution (n = 5). Dosing and blood sampling were conducted between 09:00 and 13:00. The mouse was placed in a plastic restrainer with the tail protruding through a hole in the end of the tube. The tail was immersed in warm water for 1 min for vasodilation and then a small incision was made on the lateral tail surface near the distal tip. 50 μL of blood was massaged gently into an EDTA-coated capillary blood tube (Mircovette, Sarstedt, Nümbrecht, Germany). The first (baseline) blood sample was collected directly before compound administration via oral gavage and the mouse was then returned to the home cage. Further blood samples were collected at 15, 30, 60, and 120 min post-treatment. Each sample was drawn from the same incision site, with mice maintained in the home cage in the intervening periods. The blood samples were stored on ice and centrifuged for 10 min at 780 × g and 4°C. Subsequently, the plasma was transferred into cryotubes (Protein LoBind, Eppendorf) and stored at −80 °C until analysis. All procedures were conducted under a permit for animal experimentation (ZH038/2022) issued by the Veterinary Office Zurich in accordance with the Animal Protection Act (1978) of Switzerland. The use of psilocybin was authorized by the Federal Office of Public Health (FOPH).
Pharmacokinetic parameters were calculated using Phoenix WinNonlin software (version 8.1.0, Certara, Princeton, USA). The elimination half-life (t1/2, min) was assessed as t1/2 = ln(2)/λ, while the elimination constant was calculated by linear regression in the terminal elimination phase. The maximal plasma concentration (Cmax, ng/mL) and the time to reach this concentration (tmax, h) were direct read-outs of the graphical plots.

[5] = target: T1, human 5-HT2A receptor; test: Radioligand receptor binding, 5-HT2A; set-up: expressed in transfected cells; host or cells: HEK 293 membrane preparations; settings: HEK 293 membranes, [3H]ketanserin; read-out: h5-HT2A Receptor binding Ki ± SD
[6] = target: T2, human 5-HT2B receptor (Homo sapiens, UniProt P41595); test: 5-HT activation potency (IP1 accumulation), 5-HT2B; type: cell-based; settings: NIH/3T3 cells, read-out: h5-HT2B Activation potency EC50 ± SD
T2 construct: expressed in transfected cells; host or cells: NIH/3T3
T2 sequence (P41595 whole entry): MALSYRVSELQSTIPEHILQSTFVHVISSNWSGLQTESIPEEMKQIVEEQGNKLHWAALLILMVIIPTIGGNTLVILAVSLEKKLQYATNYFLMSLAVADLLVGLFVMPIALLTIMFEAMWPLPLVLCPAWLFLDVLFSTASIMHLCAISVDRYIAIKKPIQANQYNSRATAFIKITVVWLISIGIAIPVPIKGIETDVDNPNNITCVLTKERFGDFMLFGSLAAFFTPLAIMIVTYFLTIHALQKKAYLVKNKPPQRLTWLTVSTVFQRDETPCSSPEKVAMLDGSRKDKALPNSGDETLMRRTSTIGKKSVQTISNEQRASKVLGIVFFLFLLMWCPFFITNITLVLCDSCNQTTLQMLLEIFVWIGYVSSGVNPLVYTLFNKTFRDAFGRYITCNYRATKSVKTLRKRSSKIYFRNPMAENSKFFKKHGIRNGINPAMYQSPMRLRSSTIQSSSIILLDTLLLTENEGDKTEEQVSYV
Procedure: as §1

[7] = target: T3, human 5-HT1A receptor (Homo sapiens, UniProt P08908); test: Radioligand receptor binding, 5-HT1A; set-up: expressed in transfected cells; host or cells: HEK 293 membrane preparations; settings: HEK 293 membranes, [3H]8-OH-DPAT
T3 sequence (P08908 1-422): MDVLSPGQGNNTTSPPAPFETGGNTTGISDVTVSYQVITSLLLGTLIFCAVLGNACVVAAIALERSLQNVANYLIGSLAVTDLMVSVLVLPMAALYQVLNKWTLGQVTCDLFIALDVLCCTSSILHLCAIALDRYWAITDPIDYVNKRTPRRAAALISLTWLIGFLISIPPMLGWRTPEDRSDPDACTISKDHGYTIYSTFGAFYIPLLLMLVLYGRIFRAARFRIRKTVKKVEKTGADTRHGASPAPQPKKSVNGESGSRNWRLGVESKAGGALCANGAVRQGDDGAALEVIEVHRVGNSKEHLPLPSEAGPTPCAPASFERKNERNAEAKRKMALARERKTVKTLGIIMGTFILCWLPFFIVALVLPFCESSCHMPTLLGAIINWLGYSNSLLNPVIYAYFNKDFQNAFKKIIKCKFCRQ

[8] = humans, ref Holze et al., 2022a
[9] = mouse plasma, 3 mg/kg psilocybin p.o.
[10] = read-out: h5-HT1A Receptor binding Ki ± SD
[11] = humans, single oral dose of 25 mg psilocybin, ref Kolaczynska et al., 2021, Holze et al., 2022a

In the case of `O=C(O)Cc1c[nH]c2cccc(O)c12` [4-HIAA, 4-hydroxyindole-3-acetic acid], the EC50 [1] is given as over 10 µM, the “fraction of administered psilocybin dose excreted in urine” value [2, 8] is given as “Around 33%” and the “maximal concentrations relative to psilocin (higher)” value ([2]; humans, ref Holze et al., 2022a, Becker et al., 2022) is given as 4–5 fold. The “metabolite concentration formed from psilocin” value [3] was 43.0 ± 7.9 nM, the half-life [4, 9] was 45 ± 6.6 min and the Cmax [4, 9] was 84.9 ± 17.7 ng/mL. The Tmax [4, 9] was 18 ± 6.6 min, the “concentrations relative to psilocin (lower)” value ([4]; mouse plasma) was 2 fold and the “elimination half-life in mice relative to humans (shorter)” value ([4]; mouse versus human) was “more than 2 fold”. For the same compound, the Ki [5] was over 10 µM, the EC50 [6] was over 10 µM and the Ki [7, 10] was over 10 µM.

With `OCCc1c[nH]c2cccc(O)c12` [4-HTP, 4-hydroxytryptophol] the EC50 [1] was over 10 µM, the “metabolite concentration formed from psilocin” value [3] was 43.4 ± 6.0 nM and the “detection in mouse plasma” value ([4]; 3 mg/kg psilocybin p.o.) was “could not be observed”. It also gave a Ki [5] of over 10 µM, an EC50 [6] of over 10 µM and a Ki [7, 10] of over 10 µM.

For `CN(C)CCc1c[nH]c2cccc(O)c12` [psilocin, 4-hydroxy-N,N-dimethyltryptamine], the “time of peak plasma concentration” value ([2]; after oral administration, ref Griffiths et al., 2016, Johnson et al., 2017, Holze et al., 2022a) is listed as “around 2 h”, the “plasma elimination half-life in humans” value ([2]; humans, no reference given) is listed as “approximately 2 h” and the “fraction of administered psilocybin dose excreted in urine” value [2, 8] is listed as 1.5%. For the same compound, the “elimination half-life (t1/2)” value [2, 11] was 120 to 180 min, the psilocin plasma concentrations [2, 11] was 15 to 20 ng/mL and the “psilocin concentration (mean ± SD)” value ([3]; after 240 min) was 829 ± 32 nM. For the same compound, the “psilocin concentration (mean ± SD)” value ([3]; start of incubation) was 1,162 ± 146 nM, the “effect of targeted inhibition of specific CYP enzymes in HLM on psilocin degradation” value ([3]; 1,000 nM psilocin, HLM with selective CYP inhibitors) was “did not lead to a clear inhibition” and the psilocin concentration ([3]; t = 0 min) was 1,141 ± 74 nM. The psilocin concentration ([3]; t = 240 min) was 1,096 ± 105 nM, the half-life [4, 9] was 54.6 ± 6.6 min and the Cmax [4, 9] was 198 ± 28 ng/mL. The Tmax [4, 9] was 18 ± 6.6 min and the Ki ([7]; h5-HT1A Receptor binding Ki ± SD) was < 0.136 µM and 0.128 µM.
